Assay results as given in US8372846B2, “Co-crystals and pharmaceutical compositions comprising the same” (Vertex Pharmaceuticals Incorporated, priority 2006, dated 2013).

Experiment: Solubility analyses in simulated intestinal fluid (HPLC of supernatant; solid form by XRPD)
Assay type: physicochemical
Details: simulated intestinal fluid (pH 6.8); for XRPD (solid form): room temp.; for C, mg/mL Control: room temperature, VX-950 equivalents
Protocol: An aliquot of the sample was placed in a tube and then an aqueous medium was added. At set time points, an aliquot of supernatant was withdrawn, filtered through 0.45 PTFE micron filter (Millex, LCR, Millipore) and processed for high performance liquid chromatography (HPLC) analysis (Agilent 1100; Palo Alto, Calif., USA). The system was equipped with an autosampler set at 25° C. For the sample handling, an aliquot of the sample was diluted with acetonitrile at 1 to 1 by v/v ratio. The samples were run isocratically with the detector set at 270 nm. The column was XTerra® Phenyl column 150 mm×4.6 mm, 3.5 μm Particle Size (P/N 186001144) (Waters, Milford, Mass., USA). The mobile phase was potassium phosphate buffer (10 mM, pH=7.0):methanol at 60:40 (v/v) ratio. The run was done at the flow-rate of 1 mL/min and was completed within 15 min.

CCC[C@H](NC(=O)[C@@H]1[C@H]2CCC[C@H]2CN1C(=O)[C@@H](NC(=O)[C@@H](NC(=O)c1cnccn1)C1CCCCC1)C(C)(C)C)C(=O)C(=O)NC1CC1 [VX-950 alone]
XRPD (solid form) (24 hours): Crystallizes by 24 hour | XRPD (solid form) (up to 2 hours): Amorphous (up to 2 hours | C, mg/mL Control (24 hour): Not | C, mg/mL Control (line with XRPD 'by about 4 hours'): 0.0183 mg/mL | C, mg/mL Control (line with XRPD 'up to 2 hours'): 0.025 mg/mL
